Reference: the NIST ThermoML archive (doi:10.1016/j.tca.2014.05.028)

Experiment: xn = mol fraction of the nth substance listed
Details: 101 kPa, Liquid; for viscosity: Falling or rolling sphere viscometry; for mass density: Vibrating tube method

CCC[N+]1(C)CCCC1.[Br-] [1-methyl-1-propylpyrrolidinium bromide] + O
Details	mass density [kg/m3]	viscosity [mPa·s]
298.15 K, x1 = 0.0315	1060.85	1.604
298.15 K, x1 = 0.0664	1111.9	2.896
298.15 K, x1 = 0.0983	1147.67	5.311
298.15 K, x1 = 0.1376	1178.4	8.527
298.15 K, x1 = 0.1685	1196.91	12.41
298.15 K, x1 = 0.2138	1217.36	20.56
298.15 K, x1 = 0.2382	1225.96	26.01
298.15 K, x1 = 0.27	1235.84	35.47
298.15 K, x1 = 0.3143	1245.39	50.7
298.15 K, x1 = 0.3535	1251.89	69.94
298.15 K, x1 = 1	1259.96	–
303.15 K, x1 = 0.0315	1058.76	1.412
303.15 K, x1 = 0.0664	1109.17	2.5
303.15 K, x1 = 0.0983	1144.55	4.504
303.15 K, x1 = 0.1376	1175.05	7.082
303.15 K, x1 = 0.1685	1193.47	10.2
303.15 K, x1 = 0.2138	1213.89	16.41
303.15 K, x1 = 0.2382	1222.51	20.59
303.15 K, x1 = 0.27	1232.42	27.62
303.15 K, x1 = 0.3143	1242.02	39.02
303.15 K, x1 = 0.3535	1248.57	53.25
303.15 K, x1 = 1	1255.92	–
308.15 K, x1 = 0.0315	1056.5	1.216
308.15 K, x1 = 0.0664	1106.34	2.115
308.15 K, x1 = 0.0983	1141.38	3.451
308.15 K, x1 = 0.1376	1171.66	5.766
308.15 K, x1 = 0.1685	1190.01	8.237
308.15 K, x1 = 0.2138	1210.41	12.97
308.15 K, x1 = 0.2382	1219.05	16.15
308.15 K, x1 = 0.27	1228.99	21.43
308.15 K, x1 = 0.3143	1238.64	29.75
308.15 K, x1 = 0.3535	1245.24	40.25
308.15 K, x1 = 1	1251.9	–
313.15 K, x1 = 0.0315	1054.11	1.077
313.15 K, x1 = 0.0664	1103.44	1.841
313.15 K, x1 = 0.0983	1138.15	2.994
313.15 K, x1 = 0.1376	1168.23	4.851
313.15 K, x1 = 0.1685	1186.52	6.89
313.15 K, x1 = 0.2138	1206.9	10.66
313.15 K, x1 = 0.2382	1215.56	13.14
313.15 K, x1 = 0.27	1225.54	17.24
313.15 K, x1 = 0.3143	1235.25	23.61
313.15 K, x1 = 0.3535	1241.91	31.53
313.15 K, x1 = 1	1247.91	–
318.15 K, x1 = 0.0315	1051.58	0.972
318.15 K, x1 = 0.0664	1100.44	1.633
318.15 K, x1 = 0.0983	1134.88	2.652
318.15 K, x1 = 0.1376	1164.78	4.16
318.15 K, x1 = 0.1685	1183	5.833
318.15 K, x1 = 0.2138	1203.37	8.968
318.15 K, x1 = 0.2382	1212.05	10.98
318.15 K, x1 = 0.27	1222.08	14.27
318.15 K, x1 = 0.3143	1231.85	19.29
318.15 K, x1 = 0.3535	1238.59	25.42
318.15 K, x1 = 1	1243.94	–
323.15 K, x1 = 0.0315	1048.87	0.865
323.15 K, x1 = 0.0664	1097.37	1.431
323.15 K, x1 = 0.0983	1131.54	2.372
323.15 K, x1 = 0.1376	1161.28	3.542
323.15 K, x1 = 0.1685	1179.46	4.937
323.15 K, x1 = 0.2138	1199.83	7.49
323.15 K, x1 = 0.2382	1208.53	9.11
323.15 K, x1 = 0.27	1218.61	11.75
323.15 K, x1 = 0.3143	1228.44	15.69
323.15 K, x1 = 0.3535	1235.27	20.44
323.15 K, x1 = 1	1240	–
328.15 K, x1 = 0.0315	1045.65	0.771
328.15 K, x1 = 0.0664	1094.2	1.254
328.15 K, x1 = 0.0983	1128.16	2.085
328.15 K, x1 = 0.1376	1157.76	3.021
328.15 K, x1 = 0.1685	1175.88	4.183
328.15 K, x1 = 0.2138	1196.26	6.287
328.15 K, x1 = 0.2382	1205	7.586
328.15 K, x1 = 0.27	1215.12	9.732
328.15 K, x1 = 0.3143	1225.02	12.85
328.15 K, x1 = 0.3535	1231.95	16.54
328.15 K, x1 = 1	1236.08	–
333.15 K, x1 = 0.0315	1041.46	0.695
333.15 K, x1 = 0.0664	1090.9	1.112
333.15 K, x1 = 0.0983	1124.72	1.841
333.15 K, x1 = 0.1376	1154.2	2.61
333.15 K, x1 = 0.1685	1172.28	3.597
333.15 K, x1 = 0.2138	1192.68	5.348
333.15 K, x1 = 0.2382	1201.44	6.425
333.15 K, x1 = 0.27	1211.61	8.189
333.15 K, x1 = 0.3143	1221.59	10.73
333.15 K, x1 = 0.3535	1228.68	13.7
333.15 K, x1 = 1	1232.19	–
338.15 K, x1 = 0.0315	1036.23	0.64
338.15 K, x1 = 0.0664	1087.31	1.01
338.15 K, x1 = 0.0983	1121.23	1.651
338.15 K, x1 = 0.1376	1150.6	2.311
338.15 K, x1 = 0.1685	1168.66	3.174
338.15 K, x1 = 0.2138	1189.07	4.677
338.15 K, x1 = 0.2382	1197.87	5.592
338.15 K, x1 = 0.27	1208.09	7.083
338.15 K, x1 = 0.3143	1218.14	9.191
338.15 K, x1 = 0.3535	1225.35	11.65
338.15 K, x1 = 1	1228.32	–
343.15 K, x1 = 0.0315	1030.46	0.574
343.15 K, x1 = 0.0664	1083.03	0.881
343.15 K, x1 = 0.0983	1117.67	1.326
343.15 K, x1 = 0.1376	1146.98	1.931
343.15 K, x1 = 0.1685	1165.01	2.763
343.15 K, x1 = 0.2138	1185.45	4.018
343.15 K, x1 = 0.2382	1194.28	4.784
343.15 K, x1 = 0.27	1204.56	6.011
343.15 K, x1 = 0.3143	1214.68	7.777
343.15 K, x1 = 0.3535	1221.99	9.762
343.15 K, x1 = 1	1224.48	–
